Measurements as given in patent US20240190878A1, “ANTIVIRAL PRODRUGS OF ETV AND FORMULATIONS THEREOF” (THE SCRIPPS RESEARCH INSTITUTE, priority 2022, published 2024).
Read-outs that look alike come from different tables or passages of the source.

Experiments:
[1] = Single dose rat PK, intramuscular (Example 39); format: in vivo, Male SD rats
Protocol: (§1) Animals. Animals (Male SD rats ˜200-250 g and Male Beagle dog ˜12-15 kg) were obtained from an approved vendor.
(§2) Animals were […] at least 12 hours prior to the administration. All animals had access to Certified Rodent and non-Rodent Diet ad libitum 4 hours post dosing.
(§3) Dose Formulation. The formulations were prepared on the day of dosing. Animals were dosed within four hours after the formulation is prepared. Two 20 μL aliquots of each formulation were removed from each of the formulation solutions, transferred into 1.5 mL of polypropylene microcentrifuge tubes and run dose validation by LC/UV or LC-MS/MS.
(§4) Dose Administration. For SC/IM dosing, the dose formulation was administered via subcutaneous/intramuscular injection respectively following facility SOPs.
(§5) Sample Collection. Approximately 200 μL blood was collected from saphenous vein at each time point for rats and 0.5 mL for rhesus macaques. All blood samples were transferred into microcentrifuge tubes containing 4 μL of K2EDTA (0.5M) as anti-coagulant and placed on wet ice until processed for plasma.
(§6) Blood/Plasma processing. Blood: Blood samples were processed for plasma by centrifugation at approximately 4° C., 3000 g 15 min within half an hour of collection. Plasma samples was stored in polypropylene tubes, quick frozen over dry ice and kept at −70±10° C. until LC/MS/MS analysis.
(§7) • LC-MS/MS methods for the quantitative determination of test compound in corresponded biological matrix was developed under non-GLP compliance. • A calibration curve with 8 non-zero calibration standards was applied for the method including LLOQ. • A set of QC samples consisting of low, middle, and high concentration was applied for the method. • The study sample analysis will be performed concurrently with a set of calibration standards and two sets of QC samples using the LC-MS/MS method (If sample numbers were more than 48, then two calibration curves with 2 sets of QC samples were applied). • Acceptance criteria: • Linearity: a minimum of 6 calibration standards was back calculated to within ±20% of their nominal values in plasma. • Accuracy: A minimum of 4 out of 6 QC samples was back calculated to within ±20% of their nominal values in plasma. • Specificity: The mean calculated concentration in the single blank matrix should be 0.5 times the LLOQ. • Sensitivity: the LLOQ will be tried to target 1˜3 ng/mL. • Carryover: the mean calculated carry-over concentration in the single blank matrix immediately after the highest standard injection should be LLOQ. If the carryover couldn't meet the criteria, then the percent of carryover should be estimated following in-house bioanalytical SOP.
Data Analysis. Plasma concentration versus time data was analyzed by non-compartmental approaches using the Phoenix WinNonlin 6.3 software program. Cmax, Tmax, T1/2, AUC(0-1), AUC(0-int), MRT(0-1), MRT(0-int), % F and graphs of plasma concentration versus time profile were reported.
Bis-DHA prodrug 9 (31 mg/kg equivalent dose of ETV) and ETV (20 mg/kg) were subjected to single dose rat PK studies via intramuscular route of administration. Non-micronized prodrug and ETV were used. […] Enhanced half-life and mean residence life were also observed for prodrug 9 making it suitable as a long-acting agent.
The data are shown in graphic form in FIG. 18.

[2] = male, beagle, dog, in vivo, 20 mg/kg
Protocol: as §1, §2, §3, §4, §5, §6, §7
(§8) Data Analysis. Plasma concentration versus time data was analyzed by non-compartmental approaches using the Phoenix WinNonlin 6.3 software program.
The aqueous suspension formulations were derived from 0.5% CMC-Na and 0.5% Tween 80. […] Micronized ETV (D50=2.4 um; D90=5.0 um) and prodrug 29 (D50=1.8 um; D90=4.0 um) and non-micronized prodrug 11 (D50=4.4 um; D90=13.0 um) were used for this study.

[3] = Single dose dog PK, intramuscular and subcutaneous, monitored 56 days (Example 41); format: in vivo, Male Beagle dog; details: dose-normalized
Protocol: as §1, §2, §3, §4, §5, §6, §7, §8
The aqueous suspension formulations were derived from 0.5% CMC-Na and 0.5% Tween 80. […] Micronized ETV-palmitate (D50=3.0 um; D90=10.5 um) and prodrug 36 (D50=7.0 um; D90=16.6 um) and non-micronized prodrug 11 (D50=4.4 um; D90=13.0 um) were used for this study.
The data are shown in graphic form in FIG. 12.

C=C1[C@H](CO)[C@@H](O)C[C@@H]1n1cnc2c(=O)[nH]c(N)nc21 [ETV, Entecavir]
d.n. Cmax ([1]; in vivo, im): 91.65 ng/mL/mg/kg | Clast ([1]; male, SD, in vivo): 1.4 ng/mL | day of Clast ([1]; male, SD, in vivo): 5 days | Clast [2]: 0.2 ng/mL | day of Clast [2]: 41 days | AUC0-inf ([2]; im): 25294 ± 2044 ng·h/mL | AUC0-last ([2]; im): 25134 ± 1970 ng·h/mL | Cmax ([2]; im): 2390 ± 219 ng/mL | MRT0-inf ([2]; im): 30.8 ± 4.8 h | T1/2 ([2]; im): 438 ± 263 h | Tmax ([2]; im): 2.3 ± 1.2 h

C=C1[C@H](COC(=O)CC/C=C\C/C=C\C/C=C\C/C=C\C/C=C\C/C=C\CC)[C@@H](OC(=O)CC/C=C\C/C=C\C/C=C\C/C=C\C/C=C\C/C=C\CC)C[C@@H]1n1cnc2c(=O)[nH]c(N)nc21 [Prodrug 9, (4Z,7Z,10Z,13Z,16Z,19Z)-(1S,2R,4S)-4-(2-amino-6-oxo-1H-purin-9(6H)-yl)-2-(((4Z,7Z,10Z,13Z,16Z,19Z)-docosa-4,7,10,13,16,19-hexaenoyloxy)methyl)-3-methylenecyclopentyl docosa-4,7,10,13,16,19-hexaenoate]
half-life and mean residence life ([1]; single IM dose, compared with ETV): Enhanced | d.n. Cmax ([1]; single IM dose, dose-normalized): 0.37 ng/mL/mg/kg

C=C1[C@H](COC(=O)Cc2ccccc2)[C@@H](OC(=O)Cc2ccccc2)C[C@@H]1n1cnc2c(=O)[nH]c(N)nc21 [Prodrug 11, ((1R,3S,5S)-3-(2-amino-6-oxo-1H-purin-9(6H)-yl)-2-methylene-5-(2-phenylacetoxy)cyclopentyl)methyl 2-phenylacetate]
d.n. AUC0-last ([3]; single IM dose): 1286 ng·h/mL/mg/kg | d.n. Cmax ([3]; single IM dose): 2.2 ng/mL/mg/kg | d.n. AUC0-last ([3]; single SC dose): 874 ng·h/mL/mg/kg | d.n. Cmax ([3]; single SC dose): 1.8 ng/mL/mg/kg

C=C1[C@H](CO)[C@@H](OC(=O)Cc2ccccc2)C[C@@H]1n1cnc2c(=O)[nH]c(N)nc21 [Prodrug 36]
d.n. AUC0-last ([3]; single SC dose): 1586 ng·h/mL/mg/kg | d.n. Cmax ([3]; single SC dose): 8.2 ng/mL/mg/kg
